Consider eight compounds from article PMC8548882, “The Trp-rich Antimicrobial Amphiphiles With Intramolecular Aromatic Interactions for the Treatment of Bacterial Infection” (Frontiers in Microbiology, 2021).

For one data set, the system named is S.typhimurium 7731. Format: cell-based, Salmonella enterica serovar typhimurium C77-31. From the text:
(§1) The tested strains were kindly provided by the laboratory of Veterinary Microbiology and Immunology, the College of Veterinary Medicine, Northeast Agricultural University (gram-negative bacteria, Salmonella enterica serovar typhimurium C77-31, Salmonella typhimurium ATCC 14028, Escherichia coli ATCC 25922, Pseudomonas aeruginosa ATCC 27853 and gram-positive bacteria, Staphylococcus aureus ATCC 29213, Staphylococcus aureus ATCC 43300, Staphylococcus epidermidis ATCC 12228, Staphylococcus aureus ATCC 25923).

The next data set has as its system S.typhimurium 14028. The data set is classed as cell-based, Salmonella typhimurium ATCC 14028.
Description: as §1

A further data set deals with E. coli 25922. Format: cell-based, Escherichia coli ATCC 25922.
Description: as §1

A further data set concerns P.aeruginosa 27853. Format: cell-based, Pseudomonas aeruginosa ATCC 27853. The note with it: 27853.
Description: as §1
(§2) The famous microtiter dilution, National Committee for Clinical Laboratory Standards, was adopted to measure the antimicrobial ability of the engineering peptides ([Chou et al., 2016]). In brief, the 50μl with serial dilution was incubated with the same volume bacteria (1×10^5CFU/ml in midi-logarithmic phase) in a 96-well plate 18–24h at 37°C. The positive control was the bacteria treated with culture medium and the negative control was merely culture medium. The MICs (minimum inhibitory concentrations) were defined as the lowest concentration of peptides that prevented the production of visible turbidity ([Tossi et al., 2000]).

The next data set concerns S.aureus 29213. Format: cell-based, Staphylococcus aureus ATCC 29213. The conditions noted are these: 29213.
Description: as §1, §2

The test system of a further data set is S.epidermidis 12228. Format: cell-based, Staphylococcus epidermidis ATCC 12228.
Description: as §1

The next data set relates to S.aureus 25923. The data set is classed as cell-based, Staphylococcus aureus ATCC 25923. The note with it: 25923.
Description: as §1, §2

In another data set the test system is MRSA 43300. The data set is classed as cell-based, Staphylococcus aureus ATCC 43300. The note with it: microtiter dilution, 1×10^5CFU/ml, 18–24h at 37°C, visible turbidity.
Description: as §1, §2

Data set [1] deals with panel of gram-negative and gram-positive bacteria. The note with it: over the eight strains of Table 2. On the procedure:
as §2

The subject of data set [2] is human red blood cells (hRBCs). Briefly: Hemolytic activity. The data set is classed as cell-based. The note with it: for HC5 (MHC), lowest concentration that caused 5% hemolysis: hRBC in PBS pH 7.2, 1h at 37°C, absorbance 570nm, vs 0.1% Triton X-100, highest test concentration 128μM; for Therapeutic index (TI): hRBC, ratio of MHC to GM. The source says: The hemolytic activity of peptides was reflected by the releasing amount of hemoglobin from erythrocytes lysis induced by peptides ([Dong et al., 2014a]). The informed consent was obtained from the volunteers (3 healthy 25-year-old male volunteers) before the experiment. In brief, the human red blood cells (hRBCs), donated by volunteer, were collected, washed, and resuspended in PBS at pH 7.2. The peptides were serially diluted in PBS at different concentrations in a 96-well cell cultures plate and incubated with 50μl hRBCs for 1h at 37°C. The 0.1% Trition X-100 was selected as the treatment of positive control and the negative control was the hRBCs treated with PBS. After 1h incubation, the supernatant, obtained by centrifuging the plate 1,000g for 5min, was transferred to a brand-new plate for absorbance detection at 570nm. The releasing amount of hemoglobin was converted to the percent hemolysis against to 0.1% Triton X-100 treatment. The lowest concentration caused 5% hemolysis of hRBCs and was defined as the lowest hemolytic concentration of antimicrobial peptide.

Another data set relates to IPEC-J2 cells. The data set is classed as cell-based, porcine. The conditions noted are these: IPEC-J2; ratio of IC50 to GM. On the procedure: (§3) The MTT (3-[4,5 dimethylthiozol-2-yl]-2,5-diphenylterazoliumbromide) dye was selected to analyze the cytotoxicity of peptides against the murine macrophage cell RAW 264.7 (National Collection of Authenticated Cell Cultures, Shanghai, China), human embryonic kidneys (HK293T), and the porcine intestinal epithelial cells (IPEC-J2) as in our previously study ([Li et al., 2020]). In short, the cells (10^4 cells/well) were seeded into 96-well plates and were cultivated overnight. Then the peptides with different final concentration (2μM, 4μM, 8μM, 16μM, 32μM, 64μM, and 128μM) were introduced into the plate and challenged with cells for 24h. After overnight incubation, the 50μl MTT (0.5mg/ml) was added into the cell cultures for 4h. Then the plate was centrifuged to discard the supernatants and obtain the formazan crystals. The DMSO (dimethyl sulfoxide) was employed as a solvent to dissolve the formazan crystals on the bottom of the plate and the optical density was read at 492nm with a microplate reader.

The subject of another data set is HEK 293T cells. Format: cell-based, human. The conditions noted are these: ratio of IC50 to GM. On the procedure:
as §3

For another data set, the system named is RAW 264.7 cells. The data set is classed as cell-based, murine. The conditions noted are these: RAW264.7; ratio of IC50 to GM. As to the method: as §3
The test system of data set [3] is hRBC, IPEC-J2, HEK 293T, RAW264.7. As to the method: Besides, the therapeutic index of peptide in the mammalian eukaryotic cell (RAW 264.7, HEK 293T, and IPEC J2) was also calculated to study the biocompatibility of peptides.
In a further data set the test system is normal skin tissue. Briefly: Skin toxicity, TUNEL assay. The note with it: subcutaneous injection, 24h; VW5 5mg/kg; DMSO 100μl 100%.
A further data set deals with P. aeruginosa 27853. The data set is classed as cell-based, Pseudomonas aeruginosa ATCC 27853. The note with it: 27853. As to the method: The famous microtiter dilution, National Committee for Clinical Laboratory Standards, was adopted to measure the antimicrobial ability of the engineering peptides ([Chou et al., 2016]). In brief, the 50μl with serial dilution was incubated with the same volume bacteria (1×10^5CFU/ml in midi-logarithmic phase) in a 96-well plate 18–24h at 37°C. The positive control was the bacteria treated with culture medium and the negative control was merely culture medium. […] The antimicrobial performance of peptides against P. aeruginosa 27853 cells was further studied under the complicated physiological conditions ([Lyu et al., 2016]). […] The serum was also taken into the consideration for the adverse impact on the antimicrobial effect of peptides.

Ends that are not written are not given here.

Description for normal skin tissue: The potential toxicity of peptides to normal skin tissues was further tested by TUNEL assay ([Huang et al., 2009]). […] The 100μl 100% DMSO treatment served as a positive control, which was well-known for its toxicity to induce skin necrosis. Then, the skin samples were harvested and were subjected to TUNEL assay and counterstain with 4,6-diamidino-2-phenylindole (DAPI).

For orientation: MIC means the lowest concentration found to suppress growth. Consider VKKWVKKAVKKWVKKA-NH2 [VW1], for which the minimum inhibitory concentration (MIC) in the data set on S.typhimurium 7731 was >64 µM; in the data set on S.typhimurium 14028 it was 64 µM; in the data set with E. coli 25922 it was 64 µM; in the data set with P.aeruginosa 27853, 32 µM; with S.aureus 29213 it was 64 µM; with S.epidermidis 12228, 64 µM. Further, the MIC against S.aureus 25923 and in the data set on MRSA 43300 was >64 µM throughout. For the same compound, in [1], the “GMMIC, geometric mean of the MICs” value stood at 76.11 µM. The “HC5 (MHC), lowest concentration that caused 5% hemolysis” value in [2] is >128 µM. Further, the “Therapeutic index (TI)” value in [2] is listed as > 1.68; in the data set with IPEC-J2 cells, 120.77; in the data set on HEK 293T cells it was 86.82; with RAW 264.7 cells it was 87.91. The “GMTI, geometric mean of TI of various cell lines” value (“GMTI, geometric mean” for short) in data set [3] was >35.28.

Regarding `C[S+](C)[O-]` [DMSO, dimethyl sulfoxide], the “apoptotic cells in epidermal layer (TUNEL)” value in the data set on normal skin tissue is listed as “heavy cell apoptosis”.

Take VKKWVKKWVKKWVKKA-NH2 [VW4]: the minimal inhibitory concentration (MIC) is 2 µM in the data set on S.typhimurium 7731; 4 µM against S.typhimurium 14028; 4 µM against E. coli 25922; 2 µM with P.aeruginosa 27853; 4 µM in the data set with S.aureus 29213; 4 µM in the data set on S.epidermidis 12228. Moreover, the minimal inhibitory concentration (MIC) with S.aureus 25923 and against MRSA 43300 was 4 µM throughout. For the same compound, the “GMMIC, geometric mean of the MICs” value in data set [1] was determined as 3.36 µM. The “HC5 (MHC), lowest concentration that caused 5% hemolysis” value in [2] was >128 µM. Also, the “Therapeutic index (TI)” value was > 38.1 in data set [2], 1855.95 in the data set on IPEC-J2 cells, 2751.71 in the data set with HEK 293T cells and 1855.65 in the data set on RAW 264.7 cells. The “GMTI, geometric mean” value in data set [3] is given as >775.15.

Take VKKLVKKLVKKAVKKA-NH2 [VL2]: the MIC in the data set with S.typhimurium 7731 was >64 µM; against S.typhimurium 14028, >64 µM; against E. coli 25922 it was >64 µM; in the data set on P.aeruginosa 27853, 64 µM; against S.aureus 29213 it was >64 µM; with S.epidermidis 12228 it was >64 µM. Further, the MIC with S.aureus 25923 and in the data set with MRSA 43300 was >64 µM throughout. Moreover, the “GMMIC, geometric mean of the MICs” value in [1] was 117.38 µM. In data set [2], the “HC5 (MHC), lowest concentration that caused 5% hemolysis” value is >128 µM. In addition, the “Therapeutic index (TI)” value in data set [2] was >1.09; with IPEC-J2 cells it was 87.76; in the data set with HEK 293T cells, 71.65; with RAW 264.7 cells, 64.03. In data set [3], the “GMTI, geometric mean” value is recorded as >25.74.

For VKKWVKKWVKKAVKKA-NH2 [VW2], the MIC in the data set on S.typhimurium 7731 amounted to 64 µM; in the data set on S.typhimurium 14028 it was 64 µM; with E. coli 25922, 8 µM; against P.aeruginosa 27853, 8 µM; against S.aureus 29213, 64 µM; in the data set with S.epidermidis 12228, 64 µM. Also, the MIC with S.aureus 25923 and in the data set with MRSA 43300 was 64 µM in each case. For the same compound, the “GMMIC, geometric mean of the MICs” value in [1] amounted to 41.50 µM. Also, the “HC5 (MHC), lowest concentration that caused 5% hemolysis” value in data set [2] is >128 µM. The “Therapeutic index (TI)” value in data set [2] was > 3.08; in the data set with IPEC-J2 cells, 136.45; with HEK 293T cells it was 144.05; with RAW 264.7 cells it was 136.50. Also, the “GMTI, geometric mean” value in [3] was >53.63.

With VKKLVKKLVKKLVKKL-NH2 [VL5], the minimal inhibitory concentration (MIC) against S.typhimurium 7731 turned out to be 2 µM; against S.typhimurium 14028, 4 µM; against E. coli 25922 it was 8 µM; in the data set with P.aeruginosa 27853, 2 µM; against S.aureus 29213 it was 8 µM; in the data set on S.epidermidis 12228 it was 4 µM. Further, the minimum inhibitory concentration (MIC) against S.aureus 25923 and in the data set on MRSA 43300 was 8 µM in each case. Further, the “GMMIC, geometric mean of the MICs” value in data set [1] worked out at 4.76 µM. Further, the “TI (hRBC) fold smaller than VW5” value in data set [2] is recorded as “about 2.8 fold”. The “HC5 (MHC), lowest concentration that caused 5% hemolysis” value in [2] was >128 µM. Further, the “Therapeutic index (TI)” value is on record as > 26.89 in [2], 957.83 with IPEC-J2 cells, 1574.26 with HEK 293T cells and 404.20 in the data set on RAW 264.7 cells. Also, in [3], the “GMTI, geometric mean” value is on record as >357.80.

As to VKKLVKKAVKKLVKKA-NH2 [VL1], the minimum inhibitory concentration (MIC) with S.typhimurium 7731, in the data set with S.typhimurium 14028, against E. coli 25922, in the data set with P.aeruginosa 27853, with S.aureus 29213 and in the data set with S.epidermidis 12228 was >64 µM each time. The minimum inhibitory concentration (MIC) against S.aureus 25923, with MRSA 43300 and against P. aeruginosa 27853 was >64 µM throughout. In addition, the “GMMIC, geometric mean of the MICs” value in data set [1] was 128.00 µM. In addition, the “HC5 (MHC), lowest concentration that caused 5% hemolysis” value in data set [2] is >128 µM. Moreover, the “Therapeutic index (TI)” value in [2] is recorded as >1.00; with IPEC-J2 cells, 58.65; in the data set with HEK 293T cells it was 75.40; with RAW 264.7 cells it was 68.71. Also, in [3], the “GMTI, geometric mean” value is given as >23.48.

For VKKWVKKWVKKAVKKW-NH2 [VW3], the MIC was determined as 8 µM against S.typhimurium 7731; 8 µM in the data set with S.typhimurium 14028; 4 µM against E. coli 25922; 4 µM in the data set with P.aeruginosa 27853; 16 µM with S.aureus 29213; 8 µM with S.epidermidis 12228. Besides, the MIC in the data set on S.aureus 25923 and in the data set on MRSA 43300 was 8 µM throughout. For the same compound, the “GMMIC, geometric mean of the MICs” value in data set [1] came to 7.34 µM. For the same compound, the “HC5 (MHC), lowest concentration that caused 5% hemolysis” value in data set [2] is >128 µM. In addition, the “Therapeutic index (TI)” value is > 17.44 in data set [2], 646.97 with IPEC-J2 cells, 1449.42 in the data set with HEK 293T cells and 647.10 in the data set on RAW 264.7 cells. Further, the “GMTI, geometric mean” value in data set [3] is reported as >320.73.
